Key:
[1] = system: MOLP-8 (multiple myeloma) cells; assay: Caspase Activity Assay (Caspase-Glo 3/7, 6 h treatment), MOLP-8; assay type: cell-based, human; details: MOLP-8 cells, geometric mean of multiple measurements
Procedure: (§1) This is a cell assay to measure the induction of apoptosis in MOLP-8 (multiple myeloma), KMS-12-BM (multiple myeloma), MV-4-11 (acute myeloid leukemia), and NCl-H23 (non-small cell lung cancer) cells after 6 h treatment. On the first day, 3000 (MOLP-8, KMS-12-BM, MV-4-11) or 1250 (NCl-H23) cells/well were seeded in 50 μL of growth media (IMDM+10% FBS+2 mM L-Glu for MV-4-11 and RPM1-1640+10% FBS+2 mM L-Glu for all other cell lines) in 384-well white microplates, and incubated overnight (37° C., 5% CO2, 80% RH). On the second day, the cells were treated with Mcl-1 inhibitors using an ECHO acoustic liquid handler (10 point half-log serial dilution, 31.5 μM top concentration, 0.3% final DMSO concentration). After 6 h incubation (37° C., 5% CO2, 80% RH), 25 μL of Caspase-Glo 3/7 reagent (Promega) was added into each well, and plates were incubated at room temperature for 30 min protected from light. Luminescence was recorded using an Infinite M200 microplate reader (Tecan) with a 100 ms integration time. EC50 values were calculated using GeneData analysis software.

[2] = system: KMS-12-BM (multiple myeloma) cells; assay: Caspase Activity Assay (Caspase-Glo 3/7, 6 h treatment), KMS-12-BM; assay type: cell-based; details: KMS-12-BM cells, geometric mean of multiple measurements
Procedure: as §1

[3] = system: MV-4-11 (acute myeloid leukemia) cells; assay: Caspase Activity Assay (Caspase-Glo 3/7, 6 h treatment), MV-4-11; assay type: cell-based, human; details: MV-4-11 cells, geometric mean of multiple measurements
Procedure: as §1

MOLP-8 tumor = assay: In vivo efficacy in MOLP-8 human multiple myeloma tumor model; design: species or system C.B-17 SCID female mice; details: MOLP-8 tumor bearing mice
Procedure: (§2) Example 2 was formulated in 30% 2-Hydroxypropyl-beta-cyclodextrin (HPBCD), pH 9 and dosed as intravenously (iv) in a volume of 5 ml/kg. 5×10^6 MOLP-8 tumor cells or 10^7 NCl-H929 tumor cells were injected subcutaneously in the right flank of C.B-17 SCID female mice in a volume of 0.1 mL. Tumor volumes (measured by caliper) were calculated using the formula: length (mm)×width (mm)^2[…]. For efficacy studies, mice were randomized based on tumor volumes and growth inhibition was assessed by comparison of the differences in tumor volume between control and treated groups. Dosing began when mean tumor size reached approximately 160 mm^3 for MOLP-8 and approximately 230 mm^3 for NCl-H929.

NCl-H929 tumor = assay: In vivo combination efficacy in NCI-H929 human multiple myeloma tumor model; design: species or system C.B-17 SCID female mice; details: NCl-H929 tumor bearing mice; for anti-tumor activity, agent alone: Example 2 30 mg/kg every other week or bortezomib 1 mg/kg weekly
Procedure: as §2

MV-4-11 tumor = assay: In vivo efficacy in MV-4-11 human acute myeloid leukemia tumor model; design: species or system C.B-17 SCID female mice; details: for mice remaining tumor free / tumor regression: MV-4-11 tumors
Procedure: as §2, with “a single intravenous” for “intravenously”, “(iv) administration” for “(iv)”, “10^6 MV-4-11” for “5×10^6 MOLP-8 tumor cells or 10^7 NCl-H929”, “mL. Tumor volumes (measured by caliper), animal body weight, and tumor conditions were recorded twice weekly for the duration of the study.” for “mL.”, “approximately” for “approximately 160 mm^3 for MOLP-8 and approximately”, “mm^3.” for “mm^3 for NCl-H929.”

[4] = system: NCl-H23 (non-small cell lung cancer) cells; assay: Caspase Activity Assay (Caspase-Glo 3/7, 6 h treatment), NCI-H23; assay type: cell-based; details: geometric mean of multiple measurements
Procedure: as §1

Cc1c2c(nn1C)CSCc1cc(n(C)n1)CSc1cc(c3ccccc3c1)OCCCc1c(C(=O)O)n(C)c3c-2c(Cl)ccc13 (atropisomer, axis not shown; (Ra)) [Example 2, (Ra)-(+)-17-chloro-5,13,14,22-tetramethyl-28-oxa-2,9-dithia-5,6,12,13,22-pentaazaheptacyclo[27.7.1.1^4,7.0^11,15.0^16,21.0^20,24.0^30,35]octatriaconta-1(37),4(38),6,11,14,16,18,20,23,29,31,33,35-tridecaene-23-carboxylic Acid]
EC50 [1]: 30 nM
EC50 [2]: 43 nM
EC50 [3]: 20 nM
anti-tumor activity (qualitative) (MOLP-8 tumor; iv): dose dependent anti-tumor activity
tumor growth inhibition (TGI) (MOLP-8 tumor; single iv administration at 10 mg/kg): 52%
tumor growth inhibition (TGI) (MOLP-8 tumor; single iv administration at 30 mg/kg): 92%
mice with complete tumor regression (MOLP-8 tumor; single iv administration at 60 or 100 mg/kg, measured 10 days after dosing): 13 out of 14
anti-tumor activity, agent alone (NCl-H929 tumor): no significant anti-tumor activity
anti-tumor effect of combination (NCl-H929 tumor; Example 2 every other week at 30 mg/kg in combination with weekly bortezomib at 1 mg/kg): tumor regression
mice remaining tumor free (MV-4-11 tumor; once weekly iv 30 mg/kg, 16 days after initiation of therapy): 1 of 6
tumor regression (MV-4-11 tumor; once weekly iv 30 mg/kg, at Day 6): ~73%
tumor regression (MV-4-11 tumor; single iv dose of 100 mg/kg): 100%
mice remaining tumor free (MV-4-11 tumor; single iv dose of 100 mg/kg, 16 days after therapy): 4 of the 6
anti-tumor activity (qualitative) (MV-4-11 tumor; mice bearing subcutaneous MV-4-11 tumors, iv): significant anti-tumor activity

Cc1c2c(nn1C)CSCc1cc(n(C)n1)CSc1cc(c3ccccc3c1)OCCCc1c(C(=O)O)n(C)c3c-2c(Cl)ccc13 (single isomer, unassigned) [Example 3, (Sa)-(−)-17-chloro-5,13,14,22-tetramethyl-28-oxa-2,9-dithia-5,6,12,13,22-pentaazaheptacyclo[27.7.1.1^4,7.0^11,15.0^16,21.0^20,24.0^30,35]octatriaconta-1(37),4(38),6,11,14,16,18,20,23,29,31,33,35-tridecaene-23-carboxylic Acid]
EC50 ([1]; Homo sapiens, MOLP-8, 6 h): > 2300 nM
EC50 ([2]; Homo sapiens, KMS-12-BM, 6 h): > 1030 nM
EC50 ([3]; Homo sapiens, MV4-11, 6 h): > 1580 nM
EC50 ([4]; Homo sapiens, NCI-H23, 6 h): > 10000 nM

Cc1c2c(nn1C)CSCc1cc(n(C)n1)CSc1cc(c3ccccc3c1)OCCCc1c(C(=O)O)n(C)c3c-2c(Cl)ccc13 [Example 1, 17-chloro-5,13,14,22-tetramethyl-28-oxa-2,9-dithia-5,6,12,13,22-pentaazaheptacyclo[27.7.1.1^4,7.0^11,15.0^16,21.0^20,24.0^30,35]octatriaconta-1(37),4(38),6,11,14,16,18,20,23,29,31,33,35-tridecaene-23-carboxylic Acid]
EC50 ([1]; Homo sapiens, MOLP-8, 6 h): 44 nM
EC50 ([2]; Homo sapiens, KMS-12-BM, 6 h): 48 nM
EC50 ([3]; Homo sapiens, MV4-11, 6 h): 24 nM
EC50 [4]: 531 nM

CC(C)C[C@H](NC(=O)[C@H](Cc1ccccc1)NC(=O)c1cnccn1)B(O)O [bortezomib, reference compound]
anti-tumor activity, agent alone (NCl-H929 tumor): no significant anti-tumor activity

Source: patent publication US10196404B2, “MCL-1 inhibitors and methods of use thereof” (AstraZeneca AB, priority 2016, dated 2019)
